The record followed here is the supplement of paper PMC8967900.
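Also: ALL cell lines in 384-well plates, five doses spanning 10,000-fold, each plate scaled between vehicle and 100 µmol/L benzalkonium chloride controls, sDSS an adapted area-under-curve metric.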

The first assay has as its system P12-ICHIKAWA
The experiment in a line: selective drug sensitivity score (sDSS, relative to normal bone marrow) (sDSS (score)); higher = more potent and effective on the cell line relative to normal bone marrow cells. The note with it: 72 h.
As for `COC12C(COC(N)=O)C3=C(C(=O)C(C)=C(N)C3=O)N1CC1NC12` (stereo in doubt) [Mitomycin_C] (top concentration 10000 nM), the “selective drug sensitivity score” value is -2.86.
Still for that read-out and setting: under `Cc1c(-c2c(-c3ccc(F)o3)sc3ncnc(O[C@H](Cc4ccccc4OCc4ccnn4CC(F)(F)F)C(=O)O)c23)ccc(OCCN2CCN(C)CC2)c1Cl` (top concentration 1000 nM) stands -5.84.
On the same count and under the same terms, under `Cc1ncc(Cl)cc1NCc1ccc(C(=O)N[C@@H](CC2CCCC2)C(=O)NC2CC2)s1` (top concentration 5000 nM) stands -0.94; under `CCn1c(-c2nonc2N)nc2c(C#CC(C)(C)O)ncc(OC[C@H]3CCCNC3)c21` (top concentration 10000 nM), 4.68; under `CN(c1ncccc1CNc1nc(Nc2ccc3c(c2)CC(=O)N3)ncc1C(F)(F)F)S(C)(=O)=O` (top concentration 10000 nM), -0.08.
Take `CNc1ncc2cc(-c3cc(NC(=O)NCCC(C)(C)C)c(F)cc3C)c(C)nc2n1` (top concentration 10000 nM): the “selective drug sensitivity score” value is 11.
For `C[C@@]1(C(=O)Nc2ccc(F)nc2)CCCN1c1nc(Nc2cc(C3CC3)n[nH]2)c2cccn2n1` (top concentration 10000 nM), the “selective drug sensitivity score” value came out at 11.3.
Turning to `Cc1nc(Nc2n[nH]c3c2CN(C(=O)N[C@H](CN(C)C)c2ccccc2)C3(C)C)c2sccc2n1` (top concentration 10000 nM), the “selective drug sensitivity score” value was determined as 3.68.
With `Cn1cc(-c2[nH]c3cc(NC(=O)[C@H](N)C4CCCCC4)cc4c3c2C=NNC4=O)cn1` (top concentration 10000 nM), the “selective drug sensitivity score” value is 7.38.
`Cn1cc(-c2ccc(F)c(C(F)(F)F)c2)nc1C1CCN(c2ncnc3[nH]ncc23)CC1` (top concentration 10000 nM): the “selective drug sensitivity score” value is -0.14.
Regarding `O=C(Nc1ccc2[nH]nc(-c3ccncc3)c2c1)[C@@H]1CCN(CC(=O)N2CCN(c3ccc(-c4ncccn4)cc3)CC2)C1` (top concentration 10000 nM), the “selective drug sensitivity score” value is 1.06.
The same measure, in the same setting: under `CC(C)(C)c1cc(NC(=O)Nc2ccc(Oc3ccnc4[nH]c(=O)cnc34)cc2F)n(-c2ccccc2)n1` (top concentration 25000 nM) stands -4.58; under `Nc1ncnc2c1nc(N)n2[C@@H]1O[C@H](CO)[C@@H](O)[C@H]1O` [8-amino-adenosine] (top concentration 50000 nM), 0.38.
As for `CC(C)[C@@H](CS(=O)(=O)C(C)C)N1C(=O)[C@@](C)(CC(=O)O)C[C@H](c2cccc(Cl)c2)[C@H]1c1ccc(Cl)cc1` [AMG-232] (top concentration 10000 nM), the “selective drug sensitivity score” value is -8.24.
In the case of `CC(C)[C@H](C(=O)Nc1ccc(C(=O)NO)cc1)c1ccccc1` [AR-42] (top concentration 10000 nM), the “selective drug sensitivity score” value is 8.28.
The same measure, in the same setting: under `O=C(Nc1c[nH]nc1-c1nc2ccc(CN3CCOCC3)cc2[nH]1)NC1CC1` [AT9283] (top concentration 1000 nM) stands 13.
With `CCN(CCO)CCCOc1ccc2c(Nc3cc(CC(=O)Nc4cccc(F)c4)[nH]n3)ncnc2c1` [AZD1152-HQPA] (top concentration 1000 nM), the “selective drug sensitivity score” value turned out to be 19.
For `Cc1[nH]nc(C(F)(F)F)c1Cc1sc2c(c1C(=O)N1C[C@](C)(O)CO1)c(=O)n(C)c(=O)n2C(C)C` [AZD3965] (top concentration 1000 nM), the “selective drug sensitivity score” value turned out to be 0.

Another assay has as its system RCH-ACV. The assay is described as above. The note with it: 72 h.
As for `COC12C(COC(N)=O)C3=C(C(=O)C(C)=C(N)C3=O)N1CC1NC12` (stereo in doubt) [Mitomycin_C] (top concentration 10000 nM), the “selective drug sensitivity score” value was 4.84.
For the molecule `Cc1c(-c2c(-c3ccc(F)o3)sc3ncnc(O[C@H](Cc4ccccc4OCc4ccnn4CC(F)(F)F)C(=O)O)c23)ccc(OCCN2CCN(C)CC2)c1Cl` (top concentration 1000 nM), the “selective drug sensitivity score” value was -6.54.
For `Cc1ncc(Cl)cc1NCc1ccc(C(=O)N[C@@H](CC2CCCC2)C(=O)NC2CC2)s1` (top concentration 5000 nM), the “selective drug sensitivity score” value was determined as 1.46.
Take `CCn1c(-c2nonc2N)nc2c(C#CC(C)(C)O)ncc(OC[C@H]3CCCNC3)c21` (top concentration 10000 nM): the “selective drug sensitivity score” value is 17.1.
For `CN(c1ncccc1CNc1nc(Nc2ccc3c(c2)CC(=O)N3)ncc1C(F)(F)F)S(C)(=O)=O` (top concentration 10000 nM), the “selective drug sensitivity score” value amounted to 3.62.
On the same count and under the same terms, under `CNc1ncc2cc(-c3cc(NC(=O)NCCC(C)(C)C)c(F)cc3C)c(C)nc2n1` (top concentration 10000 nM) stands 12.7.
Turning to `C[C@@]1(C(=O)Nc2ccc(F)nc2)CCCN1c1nc(Nc2cc(C3CC3)n[nH]2)c2cccn2n1` (top concentration 10000 nM), the “selective drug sensitivity score” value turned out to be 6.08.
Turning to `Cc1nc(Nc2n[nH]c3c2CN(C(=O)N[C@H](CN(C)C)c2ccccc2)C3(C)C)c2sccc2n1` (top concentration 10000 nM), the “selective drug sensitivity score” value was determined as 22.7.
Consider `Cn1cc(-c2[nH]c3cc(NC(=O)[C@H](N)C4CCCCC4)cc4c3c2C=NNC4=O)cn1` (top concentration 10000 nM), for which the “selective drug sensitivity score” value is 11.5.
The same measure, in the same setting: under `Cn1cc(-c2ccc(F)c(C(F)(F)F)c2)nc1C1CCN(c2ncnc3[nH]ncc23)CC1` (top concentration 10000 nM) stands 8.26.
On to `O=C(Nc1ccc2[nH]nc(-c3ccncc3)c2c1)[C@@H]1CCN(CC(=O)N2CCN(c3ccc(-c4ncccn4)cc3)CC2)C1` (top concentration 10000 nM), for which the “selective drug sensitivity score” value is -0.44.
The same measure, in the same setting: under `CC(C)(C)c1cc(NC(=O)Nc2ccc(Oc3ccnc4[nH]c(=O)cnc34)cc2F)n(-c2ccccc2)n1` (top concentration 25000 nM) stands 3.82.
Regarding `Nc1ncnc2c1nc(N)n2[C@@H]1O[C@H](CO)[C@@H](O)[C@H]1O` [8-amino-adenosine] (top concentration 50000 nM), the “selective drug sensitivity score” value was determined as 6.68.
On the same count and under the same terms, under `CC(C)[C@@H](CS(=O)(=O)C(C)C)N1C(=O)[C@@](C)(CC(=O)O)C[C@H](c2cccc(Cl)c2)[C@H]1c1ccc(Cl)cc1` [AMG-232] (top concentration 10000 nM) stands 12.1; under `CC(C)[C@H](C(=O)Nc1ccc(C(=O)NO)cc1)c1ccccc1` [AR-42] (top concentration 10000 nM), 13.9.
Consider `O=C(Nc1c[nH]nc1-c1nc2ccc(CN3CCOCC3)cc2[nH]1)NC1CC1` [AT9283] (top concentration 1000 nM), for which the “selective drug sensitivity score” value was 6.02.
For the molecule `CCN(CCO)CCCOc1ccc2c(Nc3cc(CC(=O)Nc4cccc(F)c4)[nH]n3)ncnc2c1` [AZD1152-HQPA] (top concentration 1000 nM), the “selective drug sensitivity score” value was 14.
In the case of `Cc1[nH]nc(C(F)(F)F)c1Cc1sc2c(c1C(=O)N1C[C@](C)(O)CO1)c(=O)n(C)c(=O)n2C(C)C` [AZD3965] (top concentration 1000 nM), the “selective drug sensitivity score” value turned out to be 0.

The subject of a further assay is RPMI-8402. The description is as above. The note with it: 72 h.
As for `COC12C(COC(N)=O)C3=C(C(=O)C(C)=C(N)C3=O)N1CC1NC12` (stereo in doubt) [Mitomycin_C] (top concentration 10000 nM), the “selective drug sensitivity score” value is -2.86.
Regarding `Cc1c(-c2c(-c3ccc(F)o3)sc3ncnc(O[C@H](Cc4ccccc4OCc4ccnn4CC(F)(F)F)C(=O)O)c23)ccc(OCCN2CCN(C)CC2)c1Cl` (top concentration 1000 nM), the “selective drug sensitivity score” value was -4.54.
For the molecule `Cc1ncc(Cl)cc1NCc1ccc(C(=O)N[C@@H](CC2CCCC2)C(=O)NC2CC2)s1` (top concentration 5000 nM), the “selective drug sensitivity score” value is -0.94.
As for `CCn1c(-c2nonc2N)nc2c(C#CC(C)(C)O)ncc(OC[C@H]3CCCNC3)c21` (top concentration 10000 nM), the “selective drug sensitivity score” value is 6.48.
Turning to `CN(c1ncccc1CNc1nc(Nc2ccc3c(c2)CC(=O)N3)ncc1C(F)(F)F)S(C)(=O)=O` (top concentration 10000 nM), the “selective drug sensitivity score” value is 1.52.
The same measure, in the same setting: under `CNc1ncc2cc(-c3cc(NC(=O)NCCC(C)(C)C)c(F)cc3C)c(C)nc2n1` (top concentration 10000 nM) stands 0.66.
For the molecule `C[C@@]1(C(=O)Nc2ccc(F)nc2)CCCN1c1nc(Nc2cc(C3CC3)n[nH]2)c2cccn2n1` (top concentration 10000 nM), the “selective drug sensitivity score” value was determined as 5.58.
Consider `Cc1nc(Nc2n[nH]c3c2CN(C(=O)N[C@H](CN(C)C)c2ccccc2)C3(C)C)c2sccc2n1` (top concentration 10000 nM), for which the “selective drug sensitivity score” value was found to be 6.38.
`Cn1cc(-c2[nH]c3cc(NC(=O)[C@H](N)C4CCCCC4)cc4c3c2C=NNC4=O)cn1` (top concentration 10000 nM): the “selective drug sensitivity score” value turned out to be 9.68.
